In patent publication US6548546B2, “HIV integrase inhibitors” (Bristol-Myers Squibb Company, priority 2000, dated 2003):

target: T1, Purified recombinant HIV-1 integrase (Human immunodeficiency virus type 1 group M subtype B, UniProt P04585); experiment: in vitro HIV-1 integrase integration (strand transfer) assay; format: biochemical; conditions: compound at 70 μM; immobilized precleaved substrate DNA, biotinylated target DNA, 1 hour at 37° C.
T1 construct: Purified recombinant HIV-1 integrase
Procedure: The in vitro activities, against integrase, of compounds of the present invention, were measured in a manner which was similar to previously disclosed methods (cf. Hazuda, D. J.; Felock, P.; Witmer, M.; Wolfe, A.; Stillmock, K.; Grobler, J. A.; Espeseth, A.; Gabryelski, L.; Schleif, W.; Blau, C.; Miller, M. D. Science, 2000, 287, 646) Purified recombinant HIV-1 integrase was incubated with immobilized precleaved substrate DNA in a 96 well plate for 20 min at 37° C. After the integration complex was formed, compounds at desired concentrations were added to the wells followed by a 10 min incubation at 37° C. Biotinyted Target DNA was then added and the reaction was carried out for an additional 1 hour at 37° C. Wells were then washed thoroughly to remove any free DNA and integration activity was measured by using a commercial kit to quantitate the amount of biotinyted target DNA integrated into the substrate.

| Structure (SMILES) | inhibition at 70 µM [%] |
| --- | --- |
| O=C(/C=C(\O)C(=O)O)CCc1ccccc1Cl [Compound 1, 6-(2-chloro-phenyl)-2-hydroxy-4-oxo-hex-2-enoic Acid] | 70 |
| O=C(/C=C(\O)C(=O)O)CC(=O)c1cc(Cl)ccc1Cl [Compound 12, 6-(2,5-Dichloro-phenyl)2-hydroxy-4,6-dioxo-hex-2-enoic Acid] | 98 |
| O=C(/C=C(\O)C(=O)O)CCc1ccccc1Br [Compound 2, 6-(2-Bromo-phenyl)-2-hydroxy-4-oxo-hex-2-enoic Acid] | 90 |
| COc1ccccc1C(=O)CC(=O)/C=C(\O)C(=O)O [Compound 6, 2-Hydroxy-6-(2-methoxy-phenyl)-4,6-dioxo-hex-2-enoic Acid] | 90 |
| O=C(/C=C(\O)C(=O)O)CC(=O)c1ccc(-c2ccccc2)cc1 [Compound 9, 6-Biphenyl-4-yl-2-hydroxy-4,6-dioxo-hex-2-enoic Acid] | 99 |
| O=C(/C=C(\O)C(=O)O)CC(=O)c1ccccc1F [Compound 11, 6-(2-Fluoro-phenyl)-2-hydroxy-4,6,-dioxo-hex-2-enoic Acid] | 86 |
| O=C(/C=C(\O)C(=O)O)CC(=O)c1ccccc1 [Compound 13, 2-Hydroxy-4,6-dioxo-6-phenyl-hex-2-enoic Acid] | 50 |
| O=C(/C=C(\O)C(=O)O)CC(=O)c1ccc2ccccc2c1 [Compound 7, 2-Hydroxy-6-naphthalen-2-yl-4,6-dioxo-hex-2-enoic Acid] | 95 |
| O=C(/C=C(\O)C(=O)O)CC(=O)c1cccc(Cl)c1 [Compound 10, 6-(3-Chloro-phenyl)-2-hydroxy-4,6-dioxo-hex-2-enoic Acid] | 88 |
| O=C(/C=C(\O)C(=O)O)CCc1ccccc1 [Compound 3, 2-Hydroxy-4-oxo-phenyl-hex-2-enoic Acid] | 60 |
| O=C(/C=C(\O)C(=O)O)CC(=O)c1ccccc1C(F)(F)F [Compound 5, 2-Hydroxy-4,6-dioxo-6-(2-trifluoromethyl-phenyl)-hex-2-enoic Acid] | 90 |
| O=C(/C=C(\O)C(=O)O)CC(=O)c1ccccc1OCc1ccccc1 [Compound 4, 6-(2-Benzyloxy-phenyl)-2-hydroxy-4,6,-dioxo-hex-2-enoic Acid] | 97 |
| O=C(/C=C(\O)C(=O)O)CC(=O)c1ccc(Cl)cc1Cl [Compound 8, 6-(2,4,-Dichloro-phenyl)-2-hydroxy-4,6-dioxo-hex-2-enoic Acid] | 95 |
